Assay results from patent US7449477B2, “7-phenyl-isoquinoline-5-sulfonylamino derivatives as inhibitors of akt (protein kinase B)” (Eli Lilly and Company, priority 2003, dated 2008).
Counter-ions that a name gives are not always drawn.

target: T1, active human Akt1 (Homo sapiens, UniProt P31749); test: Akt1 Phosphorylation Assay (phosphocellulose filter-binding, 33P-Crosstide); format: biochemical; details: active human recombinant Akt1 (full-length) 10 nM; 12.5 μM Crosstide; 20 μM ATP; 30 minutes at room temperature
T1 construct: Active human recombinant Akt1 (full-length) purified from Sf9 insect cells; purchased Upstate Biotechnology, Inc. 14-276; host or cells: Sf9 insect cells
How it was run: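 Full-length active human Akt1 (Sf9-expressed, 10 nM) phosphorylated 12.5 μM Crosstide with 20 μM ATP plus 1 μCi γ-33P-ATP in 35 mM HEPES pH 7.3, 15 mM MgCl2, 0.4 mM DTT, 4% DMSO. After 30 min at room temperature, H3PO4-stopped reactions were captured on phosphocellulose filters, washed and scintillation-counted.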

T1 sequence (P31749 whole entry): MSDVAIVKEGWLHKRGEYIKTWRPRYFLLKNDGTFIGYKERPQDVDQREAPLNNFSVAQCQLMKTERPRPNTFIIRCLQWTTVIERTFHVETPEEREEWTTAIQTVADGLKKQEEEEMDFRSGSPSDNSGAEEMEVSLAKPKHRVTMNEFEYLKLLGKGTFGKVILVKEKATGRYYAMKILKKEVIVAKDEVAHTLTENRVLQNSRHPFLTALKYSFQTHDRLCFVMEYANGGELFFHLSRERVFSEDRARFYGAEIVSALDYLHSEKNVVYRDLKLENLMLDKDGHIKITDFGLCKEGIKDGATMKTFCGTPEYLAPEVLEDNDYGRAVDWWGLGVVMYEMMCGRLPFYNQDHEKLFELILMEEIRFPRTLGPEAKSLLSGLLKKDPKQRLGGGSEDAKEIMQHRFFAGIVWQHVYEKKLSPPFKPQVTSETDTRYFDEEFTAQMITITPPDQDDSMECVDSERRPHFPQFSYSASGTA

Row | SMILES | IC50
1 | O=S(=O)(NCCNCCCc1ccc(S(=O)(=O)C(F)(F)F)cc1)c1cc(-c2ccccc2)cc2cnccc12 [Example 102, 7-Phenyl-isoquinoline-5-sulfonic acid {2-[3-(4-trifluoromethanesulfonyl-phenyl)-propylamino]-ethyl}-amide, dihydrochloride salt] | ≤ 2 µM
2 | COc1cc([N+](=O)[O-])ccc1CCCNCCNS(=O)(=O)c1cc(-c2ccccc2)cc2cnccc12 [Example 63, 7-Phenyl-isoquinoline-5-sulfonic acid {2-[3-(2-methoxy-4-nitrophenyl)-propylamino]-ethyl}-amide, dihydrochloride salt] | ≤ 2 µM
3 | CS(=O)(=O)c1ccc(C(O)CCNCCNS(=O)(=O)c2cc(-c3ccccc3)cc3cnccc23)cc1 (stereo not drawn) [Example 79, 7-Phenyl-isoquinoline-5-sulfonic acid [2-(3-hydroxy-3-(4-methanesulfonyl-phenyl)-propylamino)-ethyl]-amide, dihydrochloride salt] | ≤ 2 µM
4 | O=[N+]([O-])c1ccc(CCCNCCNS(=O)(=O)c2cc(-c3ccc(O)cc3)cc3cnccc23)cc1 [Example 98, 7-(4-hydroxy-phenyl)-isoquinoline-5-sulfonic acid {2-[3-(4-nitro-phenyl)-propylamino]-ethyl}-amide, dihydrochloride salt] | ≤ 2 µM
5 | O=[N+]([O-])c1cccc(CCCNCCNS(=O)(=O)c2cc(-c3ccccc3)cc3cnccc23)c1 [Example 101, 7-Phenyl-isoquinoline-5-sulfonic acid {2-[3-(3-nitro-phenyl)-propylamino]-ethyl}-amide, dihydrochloride salt] | ≤ 2 µM
6 | O=[N+]([O-])c1ccc(CCCNCCNS(=O)(=O)c2cc(-c3ccccc3)cc3cnccc23)c(-c2ccccc2)c1 [Example 42, 7-Phenyl-isoquinoline-5-sulfonic acid {2-[3-(5-nitro-biphenyl-2-yl)-propylamino]-ethyl}-amide, dihydrochloride salt] | ≤ 2 µM
7 | O=[N+]([O-])c1ccc(CCCNCCNS(=O)(=O)c2cc(-c3ccccc3)cc3cnccc23)cc1O [Example 105, 7-Phenyl-isoquinoline-5-sulfonic acid {2-[3-(3-hydroxy-4-nitro-phenyl)-propylamino]-ethyl}-amide, dihydrochloride salt] | ≤ 2 µM
8 | O=[N+]([O-])c1ccc(CC(O)CNCCNS(=O)(=O)c2cc(-c3ccccc3)cc3cnccc23)cc1 (single isomer, unassigned; isomer 1) [Example 85, 7-Phenyl-isoquinoline-5-sulfonic acid [2-(2-hydroxy-3-(4-nitrophenyl)-propylamino)-ethyl]-amide isomer 1, dihydrochloride salt] | ≤ 2 µM
9 | O=S(=O)(NCCNCCCc1cccc(O)c1)c1cc(-c2cccc(O)c2)cc2cnccc12 [Example 107, 7-(3-Hydroxy-phenyl)-isoquinoline-5-sulfonic acid {2-[3-(3-hydroxy-phenyl)-propylamino]-ethyl}-amide] | ≤ 2 µM
